Measurements reported in patent US11325899B2, “Benzofurane and benzothiophene derivatives as PGE2 receptor modulators” (IDORSIA PHARMACEUTICALS LTD, priority 2017, dated 2022).

How the values were obtained:
Type in all cases: cell-based
PTGER2 (EP2) = target: T1, PTGER2 (EP2) (Homo sapiens, UniProt P43116); test: hEP2 b-arrestin assay (PathHunter HEK 293 PTGER2 b-arrestin cells); conditions: antagonistic activity, beta-arrestin assay; read-out: hEP2 b-arr IC50
T1 construct: host or cells: HEK 293 (PathHunter PTGER2 b-arrestin cell line)
How it was run: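 Antagonism measured as inhibition of PGE2-driven β-arrestin 2 recruitment (enzyme fragment complementation, luminescence) in engineered HEK293 EP2 cells. Agonist: 5 μM PGE2, ~EC80, 120 min at 37 °C after 15 min compound preincubation; test range 10 μM-2 nM or 1 μM-0.2 nM, duplicates, IC50 fitted.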

PTGER4 (EP4) = target: T2, PTGER4 (EP4) (Homo sapiens, UniProt P35408); test: hEP4 b-arrestin assay (PathHunter HEK 293 PTGER4 b-arrestin cells); conditions: antagonistic activity, beta-arrestin assay; read-out: hEP4 b-arr IC50
T2 construct: host or cells: HEK 293 (PathHunter PTGER4 b-arrestin cell line)
How it was run: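 β-Arrestin recruitment to EP4 was read as enzyme-fragment-complementation chemiluminescence in stably transfected HEK 293 cells. After 15 min compound preincubation at 37 °C (ranges 10 μM–2 nM or 1 μM–0.2 nM), cells were stimulated 120 min with PGE2 at 20 nM, its EC80. IC50 values were fitted from duplicates, with repeat measurements averaged.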

EP4 receptor = target: T3, EP4 receptor (Homo sapiens, UniProt P35408); test: hEP4 cAMP assay (BT549 breast cancer cells, HTRF cAMP, PGE2 stimulation); conditions: antagonistic activity, PGE2 6 nM (EC80)
T3 construct: BT549 breast cancer cells, express high endogenous EP4 levels and very low EP2 levels; host or cells: BT549 breast cancer cells
How it was run: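 BT549 cells, with endogenous EP4 and very low EP2, were preincubated 45 min at room temperature with compound in HBSS/HEPES/BSA buffer with 2 mM IBMX. They were then stimulated 30 min with 6 nM PGE2 (EC80). cAMP was measured by HTRF competitive immunoassay against a calibrator; IC50 from duplicate dose-response as % of DMSO control.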

T1 sequence (P43116 whole entry): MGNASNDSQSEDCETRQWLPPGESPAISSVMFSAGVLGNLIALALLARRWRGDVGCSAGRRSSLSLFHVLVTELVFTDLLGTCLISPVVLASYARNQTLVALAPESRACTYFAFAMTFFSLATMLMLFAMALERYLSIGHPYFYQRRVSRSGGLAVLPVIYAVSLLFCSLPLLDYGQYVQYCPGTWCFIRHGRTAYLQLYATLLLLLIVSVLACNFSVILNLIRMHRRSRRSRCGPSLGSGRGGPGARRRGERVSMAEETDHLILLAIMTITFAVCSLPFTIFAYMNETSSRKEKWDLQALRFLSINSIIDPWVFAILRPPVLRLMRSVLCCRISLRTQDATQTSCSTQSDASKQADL
T2 sequence (P35408 whole entry): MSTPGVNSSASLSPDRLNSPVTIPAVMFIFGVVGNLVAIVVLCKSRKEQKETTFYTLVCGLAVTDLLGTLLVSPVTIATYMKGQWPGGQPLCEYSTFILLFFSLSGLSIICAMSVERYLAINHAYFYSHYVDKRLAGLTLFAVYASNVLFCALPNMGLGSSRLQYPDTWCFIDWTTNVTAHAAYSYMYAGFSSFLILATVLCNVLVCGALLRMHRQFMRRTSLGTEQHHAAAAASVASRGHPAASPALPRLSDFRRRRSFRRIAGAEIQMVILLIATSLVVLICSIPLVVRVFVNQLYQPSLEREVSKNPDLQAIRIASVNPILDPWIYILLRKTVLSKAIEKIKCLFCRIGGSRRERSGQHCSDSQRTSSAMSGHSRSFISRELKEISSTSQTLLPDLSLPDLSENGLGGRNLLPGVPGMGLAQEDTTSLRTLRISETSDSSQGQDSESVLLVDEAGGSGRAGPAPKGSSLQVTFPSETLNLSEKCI
T3 sequence (P35408 whole entry): as above

Row | Structure (SMILES) | IC50 (PTGER2 (EP2)) | IC50 (PTGER4 (EP4)) | IC50 (EP4 receptor)
1 | CCOc1cc(-c2cc(NCCc3c(C)sc4c(C)cc(F)cc34)ncn2)ccc1OCCC(=O)O [Example 143, 3-(2-Ethoxy-4-{6-[2-(5-fluoro-2,7-dimethyl-benzo[b]thiophen-3-yl)-ethylamino]-pyrimidin-4-yl}-phenoxy)-propionic acid] | 52 nM | 63 nM | 115 nM
2 | CCCCOc1cc(-c2cc(NCCc3c(C)sc4c(C)cc(F)cc34)ncn2)cc(F)c1C(=O)O [Example 144, 2-Butoxy-6-fluoro-4-{6-[2-(5-fluoro-2,7-dimethyl-benzo[b]thiophen-3-yl)-ethylamino]-pyrimidin-4-yl}-benzoic acid] | 26 nM | 92 nM | 112 nM
3 | COc1ccc(F)c2c(CCNc3cc(-c4ccc(C(=O)O)c(OC5CCC5)c4F)ncn3)c(C)sc12 [Example 146, 2-Cyclobutoxy-3-fluoro-4-{6-[2-(4-fluoro-7-methoxy-2-methyl-benzo[b]thiophen-3-yl)-ethylamino]-pyrimidin-4-yl}-benzoic acid] | 47 nM | 357 nM | 243 nM
4 | COc1cc(Cl)cc2c(CCNc3cc(-c4ccc(C(=O)O)c(OC5CCC5)c4F)ncn3)c(C)oc12 [Example 147, 4-{6-[2-(5-Chloro-7-methoxy-2-methyl-benzofuran-3-yl)-ethylamino]-pyrimidin-4-yl}-2-cyclobutoxy-3-fluoro-benzoic acid] | 213 nM | 873 nM | 889 nM
5 | Cc1sc2c(C)ccc(F)c2c1CCNc1cc(-c2cc(F)c(C(=O)O)c(OC3CCC3)c2)ncn1 [Example 148, 2-Cyclobutoxy-6-fluoro-4-{6-[2-(4-fluoro-2,7-dimethyl-benzo[b]thiophen-3-yl)-ethylamino]-pyrimidin-4-yl}-benzoic acid] | 30 nM | 43 nM | 238 nM
6 | COc1ccc(F)c2c(CCNc3cc(-c4cc(F)c(C(=O)O)c(OC5CCC5)c4)ncn3)c(C)sc12 [Example 149, 2-Cyclobutoxy-6-fluoro-4-{6-[2-(4-fluoro-7-methoxy-2-methyl-benzo[b]thiophen-3-yl)-ethylamino]-pyrimidin-4-yl}-benzoic acid] | 13 nM | 67 nM | 241 nM
7 | COc1cc(F)c(F)c2c(CCNc3cc(-c4cc(F)c(C(=O)O)c(OC5CCC5)c4)ncn3)c(C)oc12 [Example 150, 2-Cyclobutoxy-4-{6-[2-(4,5-difluoro-7-methoxy-2-methyl-benzofuran-3-yl)-ethylamino]-pyrimidin-4-yl}-6-fluoro-benzoic acid] | 109 nM | 363 nM | 450 nM
8 | COc1cc(Cl)cc2c(CCNc3cc(-c4cc(F)c(C(=O)O)c(OC5CCC5)c4)ncn3)c(C)oc12 [Example 151, 4-{6-[2-(5-Chloro-7-methoxy-2-methyl-benzofuran-3-yl)-ethylamino]-pyrimidin-4-yl}-2-cyclobutoxy-6-fluoro-benzoic acid] | 60 nM | 163 nM | 631 nM
9 | Cc1sc2c(C)cc(F)cc2c1CCNc1cc(-c2ccc(C(=O)O)c(OC3CCCC3)c2)ncn1 [Example 152, 2-Cyclopentyloxy-4-{6-[2-(5-fluoro-2,7-dimethyl-benzo[b]thiophen-3-yl)-ethylamino]-pyrimidin-4-yl}-benzoic acid] | 27 nM | 337 nM | 581 nM
10 | COc1ccc(Cl)c2c(CCNc3cc(-c4ccc(C(=O)O)c(OC5CCCC5)c4)ncn3)c(C)sc12 [Example 153, 4-{6-[2-(4-Chloro-7-methoxy-2-methyl-benzo[b]thiophen-3-yl)-ethylamino]-pyrimidin-4-yl}-2-cyclopentyloxy-benzoic acid] | 46 nM | 157 nM | 827 nM
11 | Cc1oc2c(C)cc(F)cc2c1CCNc1cc(-c2ccc(C(=O)O)c(OC3CCCC3)c2)ncn1 [Example 154, 2-Cyclopentyloxy-4-{6-[2-(5-fluoro-2,7-dimethyl-benzofuran-3-yl)-ethylamino]-pyrimidin-4-yl}-benzoic acid] | 47 nM | 911 nM | 901 nM
12 | CCOc1cc(-c2cc(NCCc3c(C)sc4c(C)cc(F)cc34)ncn2)ccc1-c1noc(=O)[nH]1 [Example 155, 3-(2-Ethoxy-4-{6-[2-(5-fluoro-2,7-dimethyl-benzo[b]thiophen-3-yl)-ethylamino]-pyrimidin-4-yl}-phenyl)-[1,2,4]oxadiazol-5(4H)-one [tautomeric form: 3-(2-ethoxy-4-(6-((2-(5-fluoro-2,7-dimethylbenzo[b]thiophen-3-yl)ethyl)amino)pyrimidin-4-yl)phenyl)-[1,2,4]oxadiazol-5-ol]] | 18 nM | 47 nM | 108 nM
13 | CCOc1cc(-c2cc(NCCc3c(C)sc4c(C)cc(F)cc34)ncn2)sc1C(=O)NS(N)(=O)=O [Example 156, 3-Ethoxy-5-(6-((2-(5-fluoro-2,7-dimethylbenzo[b]thiophen-3-yl)ethyl)amino)pyrimidin-4-yl)-N-sulfamoylthiophene-2-carboxamide] | 5 nM | 26 nM | 163 nM
14 | CCOc1cc(-c2cc(NCCc3c(C)sc4c(C)cc(F)cc34)ncn2)sc1C(=O)NS(C)(=O)=O [Example 157, N-(3-Ethoxy-5-{6-[2-(5-fluoro-2,7-dimethyl-benzo[b]thiophen-3-yl)-ethylamino]-pyrimidin-4-yl}-thiophene-2-carbonyl)-methanesulfonamide] | 8 nM | 42 nM | 69 nM
15 | CCOc1cc(-c2cc(NCCc3c(C)sc4c(C)cc(F)cc34)ncn2)sc1-c1nnn[nH]1 [Example 158, {6-[4-Ethoxy-5-(1H-tetrazol-5-yl)-thiophen-2-yl]-pyrimidin-4-yl}-[2-(5-fluoro-2,7-dimethyl-benzo[b]thiophen-3-yl)-ethyl]-amine] | 6 nM | 7 nM | 20 nM
16 | CCOc1nc(-c2cc(NCCc3c(C)sc4c(C)cc(F)cc34)ncn2)sc1C(=O)O [Example 160, 4-Ethoxy-2-{6-[2-(5-fluoro-2,7-dimethyl-benzo[b]thiophen-3-yl)-ethylamino]-pyrimidin-4-yl}-thiazole-5-carboxylic acid] | 15 nM | 16 nM | 18 nM
17 | CCc1nc(-c2cc(NCCc3c(C)sc4c(C)cc(F)cc34)ncn2)sc1C(=O)O [Example 161, 4-Ethyl-2-{6-[2-(5-fluoro-2,7-dimethyl-benzo[b]thiophen-3-yl)-ethylamino]-pyrimidin-4-yl}-thiazole-5-carboxylic acid] | 61 nM | 256 nM | 363 nM
18 | CCOc1nc(-c2cc(NCCc3c(C)sc4c(C)cc(F)cc34)ncn2)sc1-c1noc(=O)[nH]1 [Example 162, 3-(4-Ethoxy-2-{6-[2-(5-fluoro-2,7-dimethyl-benzo[b]thiophen-3-yl)-ethylamino]-pyrimidin-4-yl}-thiazol-5-yl)-[1,2,4]oxadiazol-5(4H)-one [tautomeric form: 3-(4-ethoxy-2-(6-((2-(5-fluoro-2,7-dimethylbenzo[b]thiophen-3-yl)ethyl)amino)pyrimidin-4-yl)thiazol-5-yl)-[1,2,4]oxadiazol-5-ol]] | 6 nM | 5 nM | 51 nM
19 | CCc1nc(-c2cc(NCCc3c(C)sc4c(C)cc(F)cc34)ncn2)sc1-c1noc(=O)[nH]1 [Example 163, 3-(4-Ethyl-2-{6-[2-(5-fluoro-2,7-dimethyl-benzo[b]thiophen-3-yl)-ethylamino]-pyrimidin-4-yl}-thiazol-5-yl)-[1,2,4]oxadiazol-5(4H)-one [tautomeric form: 3-(4-ethyl-2-(6-((2-(5-fluoro-2,7-dimethylbenzo[b]thiophen-3-yl)ethyl)amino)pyrimidin-4-yl)thiazol-5-yl)-[1,2,4]oxadiazol-5-ol]] | 26 nM | 17 nM | 429 nM
20 | CCOc1cc(-c2cc(NCCc3c(C#N)sc4c(OC)cccc34)ncn2)ccc1CC(=O)O [Example 164, (4-{6-[2-(2-Cyano-7-methoxy-benzo[b]thiophen-3-yl)-ethylamino]-pyrimidin-4-yl}-2-ethoxy-phenyl)-acetic acid] | 504 nM | 50 nM | 17 nM
21 | CCOc1cc(-c2cc(NCCc3c(C#N)sc4c(C)cc(F)cc34)ncn2)cc(F)c1CC(=O)O [Example 165, (4-{6-[2-(2-Cyano-5-fluoro-7-methyl-benzo[b]thiophen-3-yl)-ethylamino]-pyrimidin-4-yl}-2-ethoxy-6-fluoro-phenyl)-acetic acid] | 28 nM | 54 nM | 40 nM
22 | Cc1sc2c(C)cccc2c1CCNc1cc(-c2ccc(C(=O)O)c(SCC(C)C)c2)ncn1 [Example 166, 4-{6-[2-(2,7-Dimethyl-benzo[b]thiophen-3-yl)-ethylamino]-pyrimidin-4-yl}-2-isobutylsulfanyl-benzoic acid] | 31 nM | 254 nM | 1130 nM
